ChEMBL document CHEMBL1201862, “PubChem BioAssay data set” (2004)
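These data come from cells grown in 96-well plates and exposed to compound for 48 hours at five concentrations. Abbreviation: GI50, concentration required for 50% inhibition of growth.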 Active and inactive are the calls of the source. No stated cut-off is given here; in the data, active = GI50 up to about 1.1 µM and inactive = higher.

Tests used:
Assay in all cases: growth of human tumour cells (NCI), 48 h
[1] = test system: U-251
[2] = test system: HOP-62
[3] = test system: SNB-19
[4] = test system: ACHN
[5] = test system: COLO 205
[6] = test system: M19-MEL
[7] = test system: NCI-H226
[8] = test system: LOX IMVI
[9] = test system: SF-539
[10] = test system: A549
[11] = test system: DLD-1
[12] = test system: Malme-3M
[13] = test system: SK-OV-3
[14] = test system: MOLT-4
[15] = test system: A498
[16] = test system: SR
[17] = test system: SNB-75

Measured: GI50

CC(=O)O/C=C(/C=C/OC(C)=O)C(C/C=C(\C)C#CC=C(C)C)OC(C)=O (stereo not drawn)
inactive: [1] 38.5 µM | [2] > 100 µM | [3] > 100 µM | [4] 61.1 µM | [5] 27.9 µM | [6] 20.8 µM | [7] > 100 µM | [8] 26.1 µM | [9] 22.8 µM | [10] > 100 µM | [11] 45.8 µM | [12] 72.6 µM | [13] > 100 µM | [14] 21.1 µM | [15] > 100 µM

FC(F)(F)C1(Cl)C(Cl)(c2ccccc2)C1(Cl)c1ccccc1 (stereo not drawn)
inactive: [1] 14.7 µM | [2] 16.3 µM | [3] 18.5 µM | [4] 16.1 µM | [5] 19.2 µM | [6] 15.6 µM | [7] 13.9 µM | [8] 13.3 µM | [9] 16.1 µM | [10] 14.7 µM | [11] 15.4 µM | [16] 7.08 µM | [13] 23.1 µM | [14] 10.3 µM | [17] 16.3 µM

FC(F)(F)c1ccc2c(c1)N(CCCNCCN1CCOCC1)c1ccccc1S2
inactive: [1] 11.6 µM | [2] 12.4 µM | [3] 16.1 µM | [4] 12.3 µM | [5] 2.37 µM | [6] 7.14 µM | [8] 8.85 µM | [9] 4.7 µM | [10] 14.4 µM | [11] 16.2 µM | [12] 2.44 µM | [16] 6.32 µM | [13] > 10 µM | [14] 4.74 µM | [15] 17.9 µM | [17] 7.13 µM

CCOC(=O)C1Nc2ccc([N+](=O)[O-])cc2[C@H]2OCC[C@@H]12 (stereo partly drawn)
inactive: [1] > 100 µM | [2] > 100 µM | [3] > 100 µM | [4] > 100 µM | [5] > 100 µM | [6] > 100 µM | [7] > 100 µM | [8] > 100 µM | [9] > 100 µM | [10] > 100 µM | [11] > 100 µM | [12] > 100 µM | [13] > 100 µM | [14] > 100 µM | [15] > 100 µM | [17] > 100 µM

CCN(CC)CC1CCCCCCCCCCC1=O (stereo not drawn)
inactive: [1] > 100 µM | [2] > 100 µM | [3] > 100 µM | [4] > 100 µM | [5] > 100 µM | [6] > 100 µM | [7] > 100 µM | [8] > 100 µM | [10] > 100 µM | [11] > 100 µM | [12] > 100 µM | [16] > 100 µM | [14] > 100 µM | [15] > 100 µM | [17] 42.3 µM

Cn1nc2ccc3nccc(N(CCO)CCO)c3c2n1
inactive: [1] > 100 µM | [2] > 100 µM | [3] > 100 µM | [4] > 100 µM | [5] > 100 µM | [6] > 100 µM | [7] > 100 µM | [8] > 100 µM | [9] > 100 µM | [10] > 100 µM | [11] > 100 µM | [12] > 100 µM | [16] > 100 µM | [13] > 100 µM | [14] > 100 µM | [15] > 100 µM | [17] > 100 µM

CCOC(=O)C(=C=C=C(c1ccccc1)c1ccccc1)C(=O)OCC
inactive: [1] 17.3 µM | [2] 18.9 µM | [3] 21.5 µM | [4] 21.4 µM | [5] 16.7 µM | [6] 18.4 µM | [7] 15.5 µM | [8] 17.1 µM | [9] 18.4 µM | [10] 25 µM | [11] 18.5 µM | [12] 19.8 µM | [13] 23.2 µM | [14] 9.08 µM | [15] 48.4 µM | [17] 3.87 µM

[O-][S+]1c2ccccc2N=C(c2ccc(Cl)cc2)CC1c1cccs1 (stereo not drawn)
inactive: [1] 15.5 µM | [2] 79.3 µM | [3] 21.1 µM | [4] 28.2 µM | [5] 20 µM | [6] 17.7 µM | [7] 90.4 µM | [8] 12.6 µM | [9] 16.7 µM | [10] 32.4 µM | [11] 12.2 µM | [12] 57.8 µM | [16] 7.01 µM | [13] 28.9 µM | [14] 26 µM | [15] 97.1 µM | [17] 46.7 µM

Brc1nc2c3ccccc3ncn2c1Br
inactive: [1] 28.8 µM | [2] 44.6 µM | [3] 36.9 µM | [4] 19.6 µM | [5] 16.3 µM | [6] 33.5 µM | [7] 26.4 µM | [8] 19 µM | [9] 49.9 µM | [10] 38.8 µM | [11] 43.6 µM | [12] 13.3 µM | [16] 19.4 µM | [13] 38.5 µM | [14] 25.3 µM | [15] 43.5 µM | [17] 20.1 µM

O=S(OC12CC3CC(CC(C3)C1)C2)c1cc(Cl)cc(Cl)c1OCc1ccccc1 (stereo not drawn)
inactive: [1] > 100 µM | [2] > 100 µM | [3] > 100 µM | [4] > 100 µM | [6] > 100 µM | [8] > 100 µM | [9] > 100 µM | [11] > 100 µM | [12] > 100 µM | [16] > 100 µM | [13] > 100 µM | [14] > 100 µM | [15] > 100 µM | [17] > 100 µM

COc1ccc(/C(Cl)=C(\C=O)c2ccc(Cl)c(Cl)c2)cc1
inactive: [1] 5.66 µM | [2] 13.3 µM | [3] 16.2 µM | [4] 7.26 µM | [5] 18.8 µM | [6] 13.1 µM | [7] 13.2 µM | [8] 3.72 µM | [9] 10.2 µM | [11] 10.7 µM | [12] 16.1 µM | [13] 30.6 µM | [14] 2.6 µM | [15] 20.4 µM | [17] 3.04 µM

C/C(=N/NC(=O)CC(=O)N(C(=O)c1ccccc1Cl)c1ccc(C)cc1)c1cc2ccccc2oc1=O
inactive: [1] > 100 µM | [2] > 100 µM | [3] > 100 µM | [4] > 100 µM | [5] > 100 µM | [6] > 100 µM | [7] > 100 µM | [8] 73.1 µM | [9] > 100 µM | [10] > 100 µM | [11] > 100 µM | [12] > 100 µM | [16] 6.11 µM | [15] > 100 µM | [17] 31 µM

CC(C)OP(=O)(OC(C)C)c1nc(-c2ccccc2)n(-c2ccc([N+](=O)[O-])cc2)n1
inactive: [1] > 100 µM | [2] > 100 µM | [3] > 100 µM | [4] > 100 µM | [5] > 100 µM | [6] > 100 µM | [7] 31.3 µM | [9] > 100 µM | [10] > 100 µM | [11] > 100 µM | [12] > 100 µM | [13] > 100 µM | [14] > 100 µM | [15] > 100 µM | [17] > 100 µM
